Experimental data: patent US20250381110A1, “SKIN CARE COMPOSITION AND METHOD OF USING THE SAME” (THE PROCTER & GAMBLE COMPANY, priority 2024, published 2025)
Counter-ions that a name gives are not always drawn.

System: p62-dependent mitophagy
Assay: Luciferase-p62 assay (Fluc-p62 clearance) in mouse embryonic fibroblasts
Type: cell-based
Conditions: for Mean Luminescence: Luciferase-p62 assay, mouse embryonic fibroblasts (MEFs), compounds at 10 μM; for % Activity over baseline: percentage of Luciferase-p62 clearance relative to baseline (mean luminescence in the absence of doxycycline induction); for % Activity over baseline / % Activity relative to Rapamycin: MEFs, 10 μM; for % Activity relative to Rapamycin: percentage of activity relative to rapamycin tested in the same experiment at the same concentration
Method: To identify p62-dependent materials which increase mitophagy, a Luciferase-p62 Assay was established. This method provides an approach to measure the ability of a material to modulate p62-dependent mitophagy by using an inducible firefly luciferase-p62 (Fluc-p62) reporter cell system. In this assay, p62 levels are driven by doxycycline treatment. After levels increased, expression of Fluc-p62 is turned off by removal of doxycycline, materials are then added and assessed for how they affect clearance of Fluc-p62 protein, which is proportionate to cellular mitophagy rates (Kelly et al.). The negative control is doxycycline induced Luc-p62 in the absence of compound or bioactive material treatment and in the presence of vehicle (DMSO).
Test materials including bioactive materials were screened in mouse embryonic fibroblasts (MEFs, Harada et al.) expressing the TET-inducible p62-fluc construct as previously described (Brown et al.). […] Gibson assembly was used to insert firefly luciferase (Fluc) and p62 into the pCW57.1 backbone. Fluc, p62, and pCW57.1 were polymerase chain reaction (PCR) amplified using pfu polymerase (Life technologies) and Gibson assembly primers with 20 base pair (bp) overhangs. PCR products were separated by agarose gel electrophoreses, and fragments excised and purified before use in DNA assembly reaction with NEBuilder HiFi DNA Assembly kit (New England Biolabs). After the assembly, the reaction mix was transformed into NEB3040 Stable Competent Escherichia coli (New England Biolabs). After 24 hours growth at 31 degrees Celsius the plasmid was extracted using QIAprep Spin Miniprep kit (Qiagen). The plasmid was sequenced to confirm correct insertion of Fluc-p62. To generate MEFs stably expressing doxycycline inducible Fluc-p62, HEK293FT cells were transfected with Fluc-p62-pCW57.1 and the ViraPower Packaging Mix (Invitrogen) to produce lentivirus. MEFs were transduced with the obtained lentiviral stock following followed by selection with 1 microgram per milliliter puromycin.Fluc-p62expressing MEFs were maintained in DMEM supplemented with 10 percent fetal bovine serum (FBS), 100 units per milliliter penicillin/streptomycin, and 2 millimolar L-glutamine in a humidified atmosphere containing 5 percent carbon dioxide at 37 degrees Celsius. Cells were plated into white 96 well plates (2,000 cells per well with 100 microliters media) and allowed to settle for 24 hours. […] Subsequently, cells were treated with test materials for 48 hours in normal growth medium and analysed using ONE-Glo™+Tox Luciferase Reporter and Cell Viability Assay (Promega) by following the manufacturer's protocol.
Test compositions and control compositions were prepared as described above in the Luciferase-p62 assay (Method 3) and tested accordingly. The compounds used in this example, as examples of bioactive materials, were from the APExBIO DiscoveryProbe™ Natural Product Library Plus (Houston, TX) and evaluated at equivalent concentrations (10 μM).
Data are additionally calculated as percentage of activity relative to rapamycin, a benchmark control compound tested in the same experiment.

Compound | Mean Luminescence | % Activity over baseline [%] | % Activity relative to Rapamycin [%]
Nc1ccn([C@@H]2O[C@H](CO)[C@@H](O)[C@H]2O)c(=O)n1 [Cytidine] | 841.40 | 48.00 | 86.49
C[C@H]1CCC/C=C/[C@@H]2C[C@H](O)C[C@H]2[C@H](O)/C=C/C(=O)O1 [Brefeldin A] | 356.17 | 77.99 | 140.52
C[C@]12C[C@H](O)[C@H]3[C@@H](CCC4=CC(=O)CC[C@@]43C)[C@@H]1CC[C@@H]2C(=O)CO [Corticosterone] | 870.00 | 46.23 | 83.30
Nc1ncnc2c1ncn2[C@@H]1O[C@H](COP(=O)(O)OP(=O)(O)OP(=O)(O)O)[C@@H](O)[C@H]1O [ATP] | 875.39 | 45.90 | 82.70
CN1[C@@H]2CC[C@H]1CC(=O)C2 [Tropinone] | 896.55 | 44.59 | 80.34
Cc1ccc(C(C)C)cc1O [Carvacrol] | 937.62 | 42.05 | 75.77
COc1cc(NS(=O)(=O)c2ccc(N)cc2)nc(OC)n1 [Sulfadimethoxine] | 821.82 | 49.21 | 88.67
Clc1ccccc1C(c1ccccc1)(c1ccccc1)n1ccnc1 [Clotrimazole] | 623.22 | 61.48 | 110.78
CC1=C(/C=C/C(C)=C/C=C/C(C)=C/C=O)C(C)(C)CCC1 [all-trans Retinal] | 967.12 | 40.23 | 72.49
CC(C)c1cc2c(c(O)c1O)[C@@]1(C(=O)O)CCCC(C)(C)[C@@H]1CC2 [Carnosic acid] | 661.96 | 59.09 | 106.47
CO[C@H]1O[C@@H]2O[C@@]3(C)CC[C@H]4[C@H](C)CC[C@@H]([C@H]1C)[C@@]24OO3 [Artemether (SM-224)] | 596.56 | 63.13 | 113.75
CC(=O)OCC1=C(C(=O)O)N2C(=O)[C@@H](NC(=O)Cc3cccs3)[C@H]2SC1 [Cephalothin] | 727.65 | 55.03 | 99.15
C/C=C(\C)C(=O)O [Tiglic acid] | 947.74 | 41.43 | 74.64
O=C1c2cccc3c2[C@H](CCC3)CN1[C@@H]1CN2CCC1CC2 [Palonosetron HCl] | 915.97 | 43.39 | 78.18
COc1cc2c(cc1OC)[C@@H](Cc1ccc(O)c(Oc3cc4c(cc3OC)CCN(C)[C@@H]4Cc3ccc(O)cc3)c1)N(C)CC2 [Liensinine] | 923.21 | 42.94 | 77.38
C[C@]12CC[C@@H]3c4ccc(OC(=O)c5ccccc5)cc4CC[C@H]3[C@@H]1CC[C@@H]2O [Estradiol Benzoate] | 970.65 | 40.01 | 72.09

Compound | Mean Luminescence | % Activity over baseline [%] | % Activity relative to Rapamycin [%]
C/C(=C\CNc1ncnc2nc[nH]c12)CO [trans-Zeatin] | 994.70 | 38.53 | 69.42
COc1ccc2cc3[n+](cc2c1O)CCc1cc2c(cc1-3)OCO2 [Berberrubine] | 766.18 | 52.65 | 94.86
O=c1ccn([C@H]2C[C@H](O)[C@@H](CO)O2)c(=O)[nH]1 [Compound 2-Deoxyuridine] | 867.92 | 46.36 | 83.53
CCCCC(=O)O[C@H]1CC[C@H]2[C@@H]3CCc4cc(O)ccc4[C@H]3CC[C@]12C [Estradiol valerate] | 924.65 | 42.86 | 77.22
C[C@@H]1CC[C@@]2(OC1)O[C@H]1C[C@H]3[C@@H]4CC=C5C[C@@H](O)CC[C@]5(C)[C@H]4CC[C@]3(C)[C@H]1[C@@H]2C [Diosgenin] | 903.89 | 44.14 | 79.53
CCCNC(C)C(=O)Nc1ccccc1C (stereo not drawn) [Prilocaine] | 905.23 | 44.06 | 79.38
Oc1cccc(O)c1O [Pyrogallol] | 936.38 | 42.13 | 75.91
COc1c(C)c2c(c(O)c1C/C=C(\C)CCC(=O)O)C(=O)OC2 [Mycophenolic acid] | 821.72 | 49.22 | 88.68
Nc1nc2c(ncn2[C@@H]2O[C@H](COP(=O)([O-])[O-])[C@@H](O)[C@H]2O)c(=O)[nH]1.[Na+].[Na+] [Guanosine 5′-monophosphate (sodium salt)] | 977.65 | 39.58 | 71.31
C[C@]12CCC(=O)C=C1CC[C@@H]1[C@@H]2[C@@H](O)C[C@@]2(C)[C@H]1CC[C@]2(O)C(=O)COC(=O)CCC(=O)[O-].[Na+] | 927.92 | 42.65 | 76.85
CC[C@]12CCCN3CCc4c(n(c5ccccc45)[C@@](O)(C(=O)OC)C1)[C@@H]32 [Vincamine] | 716.24 | 55.74 | 100.42
CC1(C)[C@@H](OC(=O)CCC(=O)O)CC[C@]2(C)[C@H]3C(=O)C=C4[C@@H]5C[C@@](C)(C(=O)O)CC[C@]5(C)CC[C@@]4(C)[C@]3(C)CC[C@@H]12 [Carbenoxolone disodium] | 856.44 | 47.07 | 84.81
CO[C@H]1C[C@H](O[C@H]2CC[C@@]3(C)[C@H](CC[C@@H]4[C@@H]3CC[C@]3(C)[C@@H](C5=CC(=O)OC5)[C@@H](OC(C)=O)C[C@]43O)C2)O[C@@H](C)[C@@H]1O [Oleandrin] | 766.18 | 52.65 | 94.86
COc1cc2ncnc(Nc3ccc(F)c(Cl)c3)c2cc1OCCCN1CCOCC1 [Gefitinib (ZD1839)] | 960.31 | 40.65 | 73.25
CCC/C=C1\OC(=O)C2=C1CCC=C2 [Z-Ligustilide] | 895.67 | 44.65 | 80.44
